# Assay results from US20050119321A1, “2-substituted-1,3-thiazole compounds” (priority 2002, published 2005).
row,melting point,SMILES
1,224 to 227 °C (dec.),"COc1ccc(CCC(=O)Nc2ncc([N+](=O)[O-])s2)cc1 [Example 5, 3-(4-Methoxyphenyl)-N-(5-nitro-1,3-thiazol-2-yl)propanamide]"
2,176 to 177 °C,"COc1ccc(CCCC(=O)Nc2ncc([N+](=O)[O-])s2)cc1 [Example 6, 4-(4-Methoxyphenyl)-N-(5-nitro-1,3-thiazol-2-yl)butanamide]"
3,180 °C (dec.),"COc1ccc(Nc2nc(N)c(C(C)=O)s2)cc1 [Example 3, 1-{4-Amino-2-[(4-methoxyphenyl)amino]-1,3-thiazol-5-yl}ethanone]"
